We go through eleven compounds from patent publication US20260070902A1, “SULFONYL DERIVATIVES AS CCR6 INHIBITORS” (Hoffmann-La Roche Inc., priority 2022, published 2026).

The target of the experiment is T1, human CCR6 (Homo sapiens, UniProt P51684).
T1 sequence (P51684 1-374): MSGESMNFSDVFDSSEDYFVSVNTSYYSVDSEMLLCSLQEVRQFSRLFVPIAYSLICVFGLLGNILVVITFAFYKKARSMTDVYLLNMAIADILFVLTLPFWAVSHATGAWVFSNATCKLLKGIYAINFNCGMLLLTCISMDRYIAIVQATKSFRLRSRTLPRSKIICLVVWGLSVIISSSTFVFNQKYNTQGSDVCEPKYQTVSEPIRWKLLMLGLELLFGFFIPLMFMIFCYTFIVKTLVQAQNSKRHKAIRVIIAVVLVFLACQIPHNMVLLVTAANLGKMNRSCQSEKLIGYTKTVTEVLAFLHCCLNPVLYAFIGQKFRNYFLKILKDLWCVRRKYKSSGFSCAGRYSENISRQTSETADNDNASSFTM
As to the kind of experiment: Human CCR6-CRE reporter assay. It counts as cell-based. The following applies: relative -Log IC50; 293FT cells transfected with human CCR6 and CRE-luciferase reporter; 6 μM Forskolin, 6 nM CCL20; 5 h. Also noted: The second construct contained the open reading frame of human CCR6 in the pUNO1 backbone; host or cells: 293FT cells. The method, then:
Human CCR6-CRE Reporter Assay
293FT cells were transfected with 2 constructs using TransIT-293 (Mirus). The first construct (pGL4.29, Promega) expressed the luciferase reporter gene luc2P in response to the binding of cAMP-induced CREB to the CREelement in its promoter. The second construct contained the open reading frame of human CCR6 in the pUNO1 backbone under the control of an enhanced CMV promoter (InVivoGen). 48 h after transfection, cells were harvested and diluted to 750,000 cells/ml in culture medium (DMEM, 10% FBS, 1× pen/strep (Gibco 15140)). Compounds were 2.5-fold serially diluted in DMSO. Further dilutions were made in assay medium (DMEM, 10% FBS, 1× pen/strep, 6 μM Forskolin, 6 nM CCL20). 4 μl of the compound solution was added to a white MW384 plate, followed by 20 μl of the cell suspension. Final DMSO concentration in the assay was 0.1%. The MW384 plate was placed in an incubator at 37° C., 5% CO2 for 5 h. Luciferase activity was determined by addition of 24 μl of a 2.5× diluted BriteLite luciferase solution (Perkin Elmer), followed by luminescence measurement using a VICTOR Plate reader (Perkin Elmer). […] The relative −Log IC50 was determined with GraphPad Prism 9 using a four-parameter dose-response model.
For orientation: Reporter assays use an easily measured gene product as a stand-in for the process of interest.
By IC50 is commonly meant the concentration that inhibits the measured activity by half. Take `N=S(=O)(c1ccc(-c2ccc3n[nH]c(=O)n3c2)cc1)[C@H]1CC[C@H](Nc2ccc(S(F)(F)(F)(F)F)cc2)CC1` (stereo partly drawn) [Example 119, 6-(4-{[trans-4-{[4-(pentafluoro-λ^6-sulfanyl)phenyl]Amino}cyclohexyl]sulfonimidoyl}phenyl)-2H,3H-[1,2,4]triazolo[4,3-a]pyridin-3-one]: the 50% inhibitory concentration (IC50) is 0.316 µM. In other words, the sub-micromolar range.
`N#Cc1c[nH]c2ccc(-c3ccc(S(=N)(=O)N4CCC(Nc5ccc(S(F)(F)(F)(F)F)cc5)CC4)cc3)cc12` (centres unmarked) [Example 120, 5-{4-[(4-{[4-(pentafluoro-λ^6-sulfanyl)phenyl]Amino}piperidin-1-yl)sulfonimidoyl]phenyl}-1H-indole-3-carbonitrile] showed an IC50 of 0.0631 µM.
The same measure for `N#Cc1ccc(-c2ccc(S(=N)(=O)N3CCC(Nc4ccc(S(F)(F)(F)(F)F)cc4)CC3)cc2)cc1` (centres unmarked) [Example 122, 4′-[(4-{[4-(pentafluoro-λ^6-sulfanyl)phenyl]Amino}piperidin-1-yl)sulfonimidoyl]-[1,1′-biphenyl]-4-carbonitrile]: 0.398 µM; for `CC(C)NC(=O)c1cccc(-c2ccc(S(=O)(=O)[C@H]3CC[C@H](Nc4ccc(S(F)(F)(F)(F)F)cc4)CC3)cc2)c1` [Example 141, N-(propan-2-yl)-4′-{[trans-4-{[4-(pentafluoro-λ^6-sulfanyl)phenyl]amino}cyclohexyl]sulfonyl}-[1,1′-biphenyl]-3-carboxamide]: 0.0794 µM; for `CN(C)c1cnc2ccc(-c3ccc(S(=O)(=O)[C@H]4CC[C@H](Nc5ccc(S(F)(F)(F)(F)F)cc5)CC4)cc3)cn12` [Example 143, N,N-dimethyl-6-(4-{[trans-4-{[4-(pentafluoro-λ^6-sulfanyl)phenyl]amino}cyclohexyl]sulfonyl}phenyl)imidazo[1,2-a]pyridin-3-amine]: 0.1 µM.
With `O=C(NC1CC1)c1cccc(-c2ccc(S(=O)(=O)[C@H]3CC[C@H](Nc4ccc(S(F)(F)(F)(F)F)cc4)CC3)cc2)c1` [Example 144, N-cyclopropyl-4′-{[trans-4-{[4-(pentafluoro-λ^6-sulfanyl)phenyl]amino}cyclohexyl]sulfonyl}-[1,1′-biphenyl]-3-carboxamide], the IC50 is 0.0501 µM.
In turn, `O=S(=O)(c1ccc(-c2ncc3[nH]ccc3n2)cc1)[C@H]1CC[C@H](Nc2ccc(S(F)(F)(F)(F)F)cc2)CC1` [Example 145, 4-(pentafluoro-λ^6-sulfanyl)-N-[trans-4-(4-{5H-pyrrolo[3,2-d]pyrimidin-2-yl}benzenesulfonyl)cyclohexyl]aniline] gave an IC50 of 1.58 µM.
For `O=S(=O)(c1ccc(-c2cc3cc[nH]c3cn2)cc1)[C@H]1CC[C@H](Nc2ccc(S(F)(F)(F)(F)F)cc2)CC1` [Example 146, 4-(pentafluoro-λ^6-sulfanyl)-N-[trans-4-(4-{1H-pyrrolo[2,3-c]pyridin-5-yl}benzenesulfonyl)cyclohexyl]aniline], the midpoint of inhibition, the IC50, lay at 0.794 µM.
For the compound `Cc1cc(-c2ccc(S(=O)(=O)[C@H]3CC[C@H](Nc4ccc(S(F)(F)(F)(F)F)cc4)CC3)cc2)cn2ccnc12` [Example 149, 4-(pentafluoro-λ^6-sulfanyl)-N-[trans-4-(4-{8-methylimidazo[1,2-a]pyridin-6-yl}benzenesulfonyl)cyclohexyl]aniline], the midpoint of inhibition, the IC50, lay at 0.0631 µM.
The result for `O=S(=O)(c1ccc(-c2ccc3nnc([C@@H]4CCNC4)n3c2)cc1)N1CCC(Nc2ccc(S(F)(F)(F)(F)F)cc2)CC1` [Example 165, N-[4-(pentafluoro-λ^6-sulfanyl)phenyl]-1-(4-{3-[(3R)-pyrrolidin-3-yl]-[1,2,4]triazolo[4,3-a]pyridin-6-yl}benzenesulfonyl)piperidin-4-amine] reads 0.794 µM; that for `O=S(=O)(c1ccc(-c2ccc3nnc([C@H]4CCNC4)n3c2)cc1)N1CCC(Nc2ccc(S(F)(F)(F)(F)F)cc2)CC1` [Example 166, N-[4-(pentafluoro-λ^6-sulfanyl)phenyl]-1-(4-{3-[(3S)-pyrrolidin-3-yl]-[1,2,4]triazolo[4,3-a]pyridin-6-yl}benzenesulfonyl)piperidin-4-amine], 0.794 µM.
